{"source": "patent US20220062166A1", "about": "“Self-Gelling Solutions for Administration of Therapeutics to the Inner Ear” (Spiral Therapeutics, Inc., priority 2019, published 2022)", "key": {"[1]": {"experiment": "Physical stability of drug product vials", "format": "physicochemical", "settings": "vials stored at 4C", "experimental": "Vials of the drug product were stored at either room temperature or 4° C. for a period greater than three months. To test the LPT99 concentration in vials, the liquid drug product was filtered through sterile 0.2 micron filters."}, "[2]": {"experiment": "GLP dermal sensitization main study (Buehler test) in guinea pigs", "format": "in vivo, guinea pig", "settings": "24 or 48 hours after the challenge dose, 797 μM", "experimental": "A GLP-compliant dermal sensitization study was conducted with LPT99 in guinea pigs. The objective was to assess potential dermal sensitization of LPT99 using the Buehler test (Buehler, Arch Dermatol. 1965, 91, 171-7). The test article, LPT99, was in a neutral-pH, buffered, isotonic solution containing a thermoreversible compound. The vehicle control was buffered at neutral pH and formulated as for the test article; it contained POLOXAMER® 407, disodium phosphate dodecahydrate hydrogen, sodium dihydrogen phosphate dihydrate, sodium chloride, and water for injection. The main study consisted of 2 groups of 20 or 10 guinea pigs. Group 1 was 10 male and 10 female guinea pigs dosed with the highest concentration of LPT99, 797 μM, that was used in the dose range-finding substudy (Group 1). Group 2 was 5 male and 5 female animals that were not dosed with LPT99 (Group 2) during the induction phase and served as naïve controls; Group 2 was challenged with LPT99 on Day 28. LPT99 was topically administered to the skin in the shaved scapula area in a volume of 50 μL on Study Days 0, 7, and 14 (induction doses), and on Day 28 (challenge dose). […] The PDII (post-challenge) was calculated for the test article or vehicle by dividing the sum of the Total Irritation Score by the number of observations (e.g., 3 days×6 animals=18 (number of observations)."}}}
{"smiles": "COc1ccc2[nH]cc(CCNC(=O)CC3C(=O)N(CCc4ccc(Cl)cc4Cl)CC(=O)N3CCc3cccs3)c2c1", "note": "(centres unmarked) [LPT99, 2-(4-(2,4-dichlorophenethyl)-3,6-dioxo-1-(2-(thiophen-2-yl)ethyl)piperazin-2-yl)-N-(2-(5-methoxy-1H-indol-3-yl)ethyl)acetamide]", "values": [{"measurement": "time to LPT99 precipitation", "setting": "[1]", "result": "approximately 2 months"}, {"measurement": "Draize scores", "setting": "[2]", "result": "No Draize scores were >0"}]}
